Columns and labels:
[1] = target: T1, serotonin (5-HT) reuptake (Rattus norvegicus, UniProt P31652); assay: Inhibition of serotonin (5HT) reuptake in synaptosomes from rat brain; format: biochemical; details: test concentration of 10 μM
T1 construct: synaptosomes are freshly isolated from areas of the rat brain; from tissue; host or cells: rat brain synaptosomes (P2 fraction)
Summary of the method: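 Freshly isolated rat brain synaptosomes (P2 fraction) used for 5-HT reuptake. Test compound at 10 μM, activity given as % inhibition.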

human μ opiate receptor = target: T2, human μ opiate receptor (Homo sapiens, UniProt P35372); assay: Affinity for the human μ opiate receptor ([3H]-naloxone displacement, CHO-K1 receptor membrane preparation, SPA); format: binding; details: test concentration of 1 μM
T2 construct: purchased PerkinElmer Life Sciences, Zaventem, Belgium RB-HOM; host or cells: CHO-K1 cells (membrane preparation)
Summary of the method: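 Membranes from CHO-K1 cells expressing the human μ opiate receptor (15-40 μg protein per well) were incubated with test compound, 1 nmol/l [3H]-naloxone and WGA-SPA beads in 50 mmol/l Tris-HCl with 0.06% BSA for 90 minutes at room temperature. Values are % inhibition of specific binding at 1 μmol/l.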

T2 sequence (P35372 whole entry): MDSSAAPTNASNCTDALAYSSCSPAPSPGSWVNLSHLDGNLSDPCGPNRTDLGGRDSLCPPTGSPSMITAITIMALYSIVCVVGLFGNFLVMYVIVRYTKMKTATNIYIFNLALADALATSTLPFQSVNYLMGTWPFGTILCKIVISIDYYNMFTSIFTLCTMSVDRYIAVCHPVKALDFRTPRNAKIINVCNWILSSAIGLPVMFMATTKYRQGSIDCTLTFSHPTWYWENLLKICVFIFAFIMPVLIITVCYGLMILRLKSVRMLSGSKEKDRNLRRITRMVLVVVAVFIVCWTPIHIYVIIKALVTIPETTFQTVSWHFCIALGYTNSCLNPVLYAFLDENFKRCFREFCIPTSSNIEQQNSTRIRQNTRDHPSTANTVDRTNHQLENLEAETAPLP
T1 sequence (P31652 whole entry): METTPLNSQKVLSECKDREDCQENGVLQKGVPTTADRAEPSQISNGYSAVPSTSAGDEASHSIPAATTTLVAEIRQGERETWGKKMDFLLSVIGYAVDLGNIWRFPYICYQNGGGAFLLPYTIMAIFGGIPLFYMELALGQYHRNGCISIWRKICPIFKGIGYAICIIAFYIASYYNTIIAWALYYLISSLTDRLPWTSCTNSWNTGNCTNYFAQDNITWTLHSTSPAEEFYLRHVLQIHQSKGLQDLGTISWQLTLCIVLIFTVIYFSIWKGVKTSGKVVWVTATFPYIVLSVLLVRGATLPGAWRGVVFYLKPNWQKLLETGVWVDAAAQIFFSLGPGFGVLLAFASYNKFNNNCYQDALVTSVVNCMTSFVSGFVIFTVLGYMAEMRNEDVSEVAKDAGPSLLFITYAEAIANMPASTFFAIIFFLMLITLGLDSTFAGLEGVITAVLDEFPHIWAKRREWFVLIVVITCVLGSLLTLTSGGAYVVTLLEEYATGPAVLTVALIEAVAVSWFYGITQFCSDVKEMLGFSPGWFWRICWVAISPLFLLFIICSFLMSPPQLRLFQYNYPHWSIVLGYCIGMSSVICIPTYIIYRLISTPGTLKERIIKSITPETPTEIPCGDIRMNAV

Row | Compound | 5-HT (inhibition of reuptake of serotonin, % inhibition) [1] [%] | μ (binding on the μ opioid receptor, % inhibition) (human μ opiate receptor) [%]
1 | CN(C)C(c1cccc(F)c1)C1CCC(CNC(=O)COCCC2CCN(S(=O)(=O)c3ccccc3)CC2)CC1 (stereo not shown) [Example 333] | 84 | 65
2 | CN(C)C(c1ccc(Cl)cc1)C1CCC(CCNC(=O)COCCN(C)S(=O)(=O)c2ccc(Cl)cc2Cl)CC1 (stereo not shown) [Example 291] | 81 | 65
3 | Cc1ccc(S(=O)(=O)N(C)CCOCC(=O)NCC2CCC(C(c3ccc(F)cc3)N(C)C)CC2)cc1 (stereo not shown) [Example 362] | 105 | 54
4 | COc1ccc(S(=O)(=O)N2CCCCC2COCC(=O)NCC2CCC(C(c3ccc(Cl)cc3)N(C)C)CC2)cc1 (stereo not shown) [Example 321] | 86 | 70
5 | CN(C)C(c1cccc(F)c1)C1CCC(CNC(=O)COCCN2CCN(S(=O)(=O)c3ccccc3)CC2)CC1 (stereo not shown) [Example 308] | 93 | 60
6 | COc1ccc(S(=O)(=O)N2CCCCC2CCOCC(=O)NCC2CCC(C(c3ccc(F)cc3)N(C)C)CC2)cc1 (stereo not shown) [Example 350] | 92 | 61
7 | Cc1ccc(S(=O)(=O)N(C)CCOCC(=O)NCCC2CCC(C(c3ccc(Cl)cc3)N(C)C)CC2)cc1 (stereo not shown) [Example 306] | 91 | 60
8 | COc1cc(C)c(S(=O)(=O)N2CCCC(OCC(=O)NC3CCC(C(c4cccc(F)c4)N(C)C)CC3)C2)c(C)c1C (stereo not shown) [Example 279] | 85 | 77
9 | CCN(CCOCC(=O)NCC1CCC(C(c2ccc(Cl)cc2)N(C)C)CC1)S(=O)(=O)c1c(C)cc(OC)c(C)c1C (stereo not shown) [Example 310] | 83 | 61
10 | CN(C)C(c1cccc(F)c1)C1CCC(CNC(=O)COC2CCN(S(=O)(=O)c3ccccc3)C2)CC1 (stereo not shown) [Example 355] | 102 | 66
11 | Cc1ccc(S(=O)(=O)N2CCC(OCC(=O)NCC3CCC(C(c4ccc(Cl)cc4)N(C)C)CC3)C2)cc1 (stereo not shown) [Example 304] | 88 | 64
12 | COc1ccc(S(=O)(=O)N(C)CCOCC(=O)NCC2CCC(C(c3ccc(Cl)cc3)N(C)C)CC2)cc1 (stereo not shown) [Example 324] | 83 | 62
13 | COc1ccc(S(=O)(=O)N2CCC(OCC(=O)NC3CCC(C(c4cccc(F)c4)N(C)C)CC3)C2)cc1OC (stereo not shown) [Example 323] | 91 | 67
14 | CN(C)C(c1ccc(F)cc1)C1CCC(CNC(=O)COCCN(C)S(=O)(=O)c2c(Cl)cccc2Cl)CC1 (stereo not shown) [Example 334] | 83 | 66
15 | COc1ccc(S(=O)(=O)N2CCCCC2COCC(=O)NCC2CCC(C(c3cccc(F)c3)N(C)C)CC2)cc1OC (stereo not shown) [Example 329] | 91 | 66
16 | Cc1cc(C)c(S(=O)(=O)N2CCC(OCC(=O)NC3CCC(C(c4ccc(F)cc4)N(C)C)CC3)C2)c(C)c1 (stereo not shown) [Example 332] | 88 | 58
17 | COc1ccc(S(=O)(=O)N2CCCCC2COCC(=O)NCCC2CCC(C(c3ccc(Cl)cc3)N(C)C)CC2)cc1 (stereo not shown) [Example 311] | 95 | 67
18 | CN(C)C(c1ccccc1)C1CCC(CNC(=O)COC2CCN(S(=O)(=O)c3ccccc3)CC2)CC1 (stereo not shown) [Example 300] | 94 | 66
19 | COc1cc(C)c(S(=O)(=O)N2CCC(OCC(=O)NCCC3CCC(C(c4cccc(F)c4)N(C)C)CC3)C2)c(C)c1 (stereo not shown) [Example 307] | 97 | 73
20 | CN(C)C(c1ccc(F)cc1)C1CCC(NC(=O)COCCN(C)S(=O)(=O)c2ccc(OC(F)(F)F)cc2)CC1 (stereo not shown) [Example 361] | 87 | 59
21 | COc1ccc(S(=O)(=O)N2CCCCC2COCC(=O)NCCC2CCC(C(c3cccc(F)c3)N(C)C)CC2)c(OC)c1 (stereo not shown) [Example 281] | 89 | 77
22 | COc1cc(C)c(S(=O)(=O)N2CCC(OCC(=O)NC3CCC(C(c4cccc(F)c4)N(C)C)CC3)CC2)c(C)c1C (stereo not shown) [Example 286] | 92 | 76

Row | Compound | 5-HT (inhibition of reuptake of serotonin, % inhibition) [1] [%] | μ (binding on the μ opioid receptor, % inhibition) (human μ opiate receptor) [%]
23 | CN(C)C(c1cccs1)C1CCC(NC(=O)COCCN2CCN(S(=O)(=O)c3ccccc3)CC2)CC1 (stereo not shown) [Example 341] | 85 | 64
24 | CN(C)C(c1ccc(Cl)cc1)C1CCC(CNC(=O)COC2CCCN(S(=O)(=O)c3ccccc3)C2)CC1 (stereo not shown) [Example 301] | 92 | 69
25 | COc1ccc(S(=O)(=O)N(C)CCOCC(=O)NCCC2CCC(C(c3cccc(F)c3)N(C)C)CC2)cc1 (stereo not shown) [Example 292] | 83 | 74
26 | CN(C)C(c1ccc(F)cc1)C1CCC(NC(=O)COC2CCN(S(=O)(=O)c3cccc(C(F)(F)F)c3)C2)CC1 (stereo not shown) [Example 330] | 90 | 54
27 | COc1ccc(S(=O)(=O)N2CCCCC2COCC(=O)NC2CCC(C(c3cccc(F)c3)N(C)C)CC2)cc1OC (stereo not shown) [Example 352] | 91 | 65
28 | CN(C)C(c1cccs1)C1CCC(NC(=O)COCCN(C)S(=O)(=O)c2ccc(OC(F)(F)F)cc2)CC1 (stereo not shown) [Example 282] | 52 | 74
29 | COc1cc(C)c(S(=O)(=O)N(C)CCOCC(=O)NCC2CCC(C(c3ccc(Cl)cc3)N(C)C)CC2)c(C)c1 (stereo not shown) [Example 348] | 83 | 61
30 | COc1ccc(S(=O)(=O)N2CCCCC2CCOCC(=O)NCC2CCC(C(c3ccc(Cl)cc3)N(C)C)CC2)cc1 (stereo not shown) [Example 312] | 89 | 61
31 | CN(C)C(c1ccc(F)cc1)C1CCC(NC(=O)COCCN(C)S(=O)(=O)c2ccc(Cl)cc2Cl)CC1 (stereo not shown) [Example 356] | 84 | 55
32 | COc1ccc(S(=O)(=O)N2CCCCC2COCC(=O)NCC2CCC(C(c3ccc(F)cc3)N(C)C)CC2)cc1 (stereo not shown) [Example 345] | 92 | 64
33 | CN(C)C(c1ccc(F)cc1)C1CCC(NC(=O)COCCN(Cc2ccccc2)S(=O)(=O)c2ccccc2)CC1 (stereo not shown) [Example 336] | 96 | 59
34 | CN(C)C(c1cccc(F)c1)C1CCC(CCNC(=O)COCCN(Cc2ccccc2)S(=O)(=O)c2ccccc2)CC1 (stereo not shown) [Example 278] | 98 | 77
35 | Cc1ccc(S(=O)(=O)N2CCC(OCC(=O)NCCC3CCC(C(c4ccc(Cl)cc4)N(C)C)CC3)C2)cc1 (stereo not shown) [Example 305] | 88 | 63
36 | CN(C)C(c1ccc(Cl)cc1)C1CCC(CNC(=O)COCCN(C)S(=O)(=O)c2cccc(C(F)(F)F)c2)CC1 (stereo not shown) [Example 314] | 93 | 64
37 | CN(C)C(c1ccc(F)cc1)C1CCC(NC(=O)COC2CCN(S(=O)(=O)c3ccc(Cl)cc3Cl)C2)CC1 (stereo not shown) [Example 290] | 89 | 67
38 | COc1cc(C)c(S(=O)(=O)N2CCC(OCC(=O)NCC3CCC(C(c4cccc(F)c4)N(C)C)CC3)CC2)c(C)c1C (stereo not shown) [Example 287] | 96 | 71
39 | CN(C)C(c1cccc(F)c1)C1CCC(CNC(=O)COCCN(C)S(=O)(=O)c2ccc(OC(F)(F)F)cc2)CC1 (stereo not shown) [Example 303] | 83 | 66
40 | CN(C)C(c1ccc(Cl)cc1)C1CCC(CNC(=O)COC2CCN(S(=O)(=O)c3cccc(C(F)(F)F)c3)C2)CC1 (stereo not shown) [Example 331] | 84 | 61
41 | COc1ccc(S(=O)(=O)N2CCCCC2COCC(=O)NC2CCC(C(c3cccc(F)c3)N(C)C)CC2)c(OC)c1 (stereo not shown) [Example 322] | 78 | 70
42 | COc1cc(C)c(S(=O)(=O)N(C)CCOCC(=O)NCC2CCC(C(c3ccc(Cl)cc3)N(C)C)CC2)c(C)c1C (stereo not shown) [Example 298] | 79 | 64
43 | COc1cc(C)c(S(=O)(=O)N(C)CCOCC(=O)NCCC2CCC(C(c3ccc(Cl)cc3)N(C)C)CC2)c(C)c1C (stereo not shown) [Example 317] | 88 | 62
44 | CN(C)C(c1cccc(F)c1)C1CCC(CCNC(=O)COC2CCCN(S(=O)(=O)c3ccccc3)C2)CC1 (stereo not shown) [Example 326] | 97 | 67

— US8106055B2, “Substituted amide compounds” (Gruenenthal GmbH, priority 2007, dated 2012)
